# Laboratory results as given in US11078228B2, “Ectonucleotidase inhibitors and methods of use thereof” (Calithera Biosciences, Inc., priority 2018, dated 2021).
# Target: recombinant CD73 (Homo sapiens (Human), UniProt P21589)
# Experiment: Assay 2: Inhibition of the CD73 enzyme in vitro (0.05 nM CD73, 1 hour 37° C., Malachite Green)
# Format: biochemical
# Conditions: 0.05 nM CD73, 50 μM AMP, 1 hour at 37° C.
# Protocol: For measurements of soluble CD73 enzyme activity, recombinant CD73 was obtained from R&D Systems, Cat. No. 5795-EN-010. […] Reactions were allowed to proceed for 1 hour at 37° C. before the addition of 100 μL Malachite Green (Cell Signaling Technology, Cat. No. 12776). After 5 minutes at room temperature, absorbance at 630 nm was determined on a microplate spectrophotometer. The concentration of inorganic phosphate was determined using a phosphate standard curve.
# Sequence of recombinant CD73 (P21589 27-547): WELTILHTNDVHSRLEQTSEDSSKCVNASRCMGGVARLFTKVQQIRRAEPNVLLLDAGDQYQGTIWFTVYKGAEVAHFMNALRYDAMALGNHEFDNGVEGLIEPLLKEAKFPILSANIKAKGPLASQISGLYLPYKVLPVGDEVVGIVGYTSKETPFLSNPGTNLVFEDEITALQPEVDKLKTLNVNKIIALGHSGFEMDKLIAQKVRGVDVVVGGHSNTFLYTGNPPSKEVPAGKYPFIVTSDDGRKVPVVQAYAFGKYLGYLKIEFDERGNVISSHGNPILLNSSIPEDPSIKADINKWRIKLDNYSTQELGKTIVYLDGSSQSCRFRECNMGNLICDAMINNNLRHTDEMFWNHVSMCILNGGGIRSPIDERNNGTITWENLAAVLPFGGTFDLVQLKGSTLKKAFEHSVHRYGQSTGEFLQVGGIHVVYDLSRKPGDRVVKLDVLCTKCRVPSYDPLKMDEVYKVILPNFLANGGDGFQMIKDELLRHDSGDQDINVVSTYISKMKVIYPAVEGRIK
row,SMILES,IC50 [nM]
1,"C#C[C@@]1(O)[C@@H](COC(Cc2ccc(-c3cccn(CCC)c3=O)cc2)(C(=O)O)C(=O)O)O[C@@H](n2cnc3c(N)nc(Cl)nc32)[C@@H]1O [Example 19, 2-(((2R,3S,4R,5R)-5-(6-amino-2-chloro-9H-purin-9-yl)-3-ethynyl-3,4-dihydroxytetrahydrofuran-2-yl)methoxy)-2-(4-(2-oxo-1-propy-1,2-dihydropyridin-3-yl)benzyl)malonic acid]",0.2
2,"C#C[C@@]1(O)[C@@H](COC(Cc2cc(C)on2)(C(=O)O)C(=O)O)O[C@@H](n2cnc3c(NCc4ccc(F)cc4)nc(Cl)nc32)[C@@H]1O [Example 111, 2-(((2R,3S,4R,5R)-5-(2-chloro-6-((4-fluorobenzyl)amino)-9H-purin-9-yl)-3-ethynyl-3,4-dihydroxytetrahydrofuran-2-yl)methoxy)-2-((5-methylisoxazol-3-yl)methyl)malonic acid]",2670
3,"C#C[C@@]1(O)[C@@H](COC(Cc2ccc(N3CCCN(CCC)C3=O)cc2)(C(=O)O)C(=O)O)O[C@@H](n2cnc3c(N)nc(Cl)nc32)[C@@H]1O [Example 152, 2-(((2R,3S,4R,5R)-5-(6-amino-2-chloro-9H-purin-9-yl)-3-ethynyl-3,4-dihydroxytetrahydrofuran-2-yl)methoxy)-2-(4-(2-oxo-3-propyltetrahydropyrimidin-1 (2H)-yl)benzyl)malonic acid]",0.05
4,"C#C[C@@]1(O)[C@@H](COC(Cc2ccc(N3CCCNC3=O)cc2)(C(=O)O)c2cscn2)O[C@@H](n2cnc3c(NC(C)C)nc(Cl)nc32)[C@@H]1O (stereo partly drawn) [Example 176, 2-(((2R,3S,4R,5R)-5-(2-chloro-6-(isopropylamino)-9H-purin-9-yl)-3-ethynyl-3,4-dihydroxytetrahydrofuran-2-yl)methoxy)-3-(4-(2-oxotetrahydropyrimidin-1(2H)-yl)phenyl)-2-(thiazol-4-yl)propanoic acid]",5
5,"C#C[C@@]1(O)[C@@H](COC(Cc2ccn[nH]2)(C(=O)O)C(=O)O)O[C@@H](n2cnc3c(N)nc(Cl)nc32)[C@@H]1O [Example 158, 2-((1H-pyrazol-5-yl)methyl)-2-(((2R,3S,4R,5R)-5-(6-amino-2-chloro-9H-purin-9-yl)-3-ethynyl-3,4-dihydroxytetrahydrofuran-2-yl)methoxy)malonic acid]",8
6,"C#C[C@@]1(O)[C@@H](COC(Cc2ccc(N3CCCNC3=O)cc2)(C(=O)O)C(=O)O)O[C@@H](n2cnc3c(NCC4CC4)nc(Cl)nc32)[C@@H]1O [Example 136, 2-(((2R,3S,4R,5R)-5-(2-chloro-6-((cyclopropylmethyl)amino)-9H-purin-9-yl)-3-ethynyl-3,4-dihydroxytetrahydrofuran-2-yl)methoxy)-2-(4-(2-oxotetrahydropyrimidin-1(2H)-yl)benzyl)malonic acid]",0.24
7,"C#C[C@@]1(O)[C@@H](COC(Cc2ccc(-c3cccn(CCO)c3=O)cc2)(C(=O)O)C(=O)O)O[C@@H](n2cnc3c(N)nc(Cl)nc32)[C@@H]1O [Example 21, 2-(((2R,3S,4R,5R)-5-(6-amino-2-chloro-9H-purin-9-yl)-3-ethynyl-3,4-dihydroxytetrahydrofuran-2-yl)methoxy)-2-(4-(1-(2-hydroxyethyl)-2-oxo-1,2-dihydropyridin-3-yl)benzyl)malonic acid]",0.3
8,"C#C[C@@]1(O)[C@@H](COC(Cc2ccc(-c3cccnc3OC)cc2)(C(=O)O)C(=O)O)O[C@@H](n2cnc3c(N)nc(Cl)nc32)[C@@H]1O [Example 22, 2-(((2R,3S,4R,5R)-5-(6-amino-2-chloro-9H-purin-9-yl)-3-ethynyl-3,4-dihydroxytetrahydrofuran-2-yl)methoxy)-2-(4-(2-methoxypyridin-3-yl)benzyl)malonic acid]",0.3
9,"C#C[C@@]1(O)[C@@H](CO[C@](Cc2ccccc2)(C(=O)O)c2cscn2)O[C@@H](n2cnc3c(NCC4CC4)nc(Cl)nc32)[C@@H]1O (single isomer, unassigned) [Example 172]",6
10,"C#C[C@@]1(O)[C@@H](COC(Cc2ccc(N3CCCNC3=O)cc2)(C(=O)O)C(=O)O)O[C@@H](n2cnc3c(NC(C)C)nc(Cl)nc32)[C@@H]1O [Example 140, 2-(((2R,3S,4R,5R)-5-(2-chloro-6-(isopropylamino)-9H-purin-9-yl)-3-ethynyl-3,4-dihydroxytetrahydrofuran-2-yl)methoxy)-2-(4-(2-oxotetrahydropyrimidin-1(2H)-yl)benzyl)malonic acid]",0.29
11,"C#C[C@@]1(O)[C@@H](COC(Cc2ccccc2)(C(=O)O)C(=O)OCC)O[C@@H](n2cnc3c(NCc4ccncc4)nc(Cl)nc32)[C@@H]1O (stereo partly drawn) [Example 109, 2-benzyl-2-(((2R,3S,4R,5R)-5-(2-chloro-6-((pyridin-4-ylmethyl)amino)-9H-purin-9-yl)-3-ethynyl-3,4-dihydroxytetrahydrofuran-2-yl)methoxy)-3-ethoxy-3-oxopropanoic acid]",284

# Other lines, results leading:
row,IC50 [nM],SMILES
1,3,"C#C[C@@]1(O)[C@@H](COC(Cc2ccccc2)(C(=O)O)C(=O)O)O[C@@H](n2cnc3c(N4CCC[C@@H]4CO)nc(Cl)nc32)[C@@H]1O [Example 103, 2-benzyl-2-(((2R,3S,4R,5R)-5-(2-chloro-6-((R)-2-(hydroxymethyl)-pyrrolidin-1-yl)-9H-purin-9-yl)-3-ethynyl-3,4-dihydroxytetrahydrofuran-2-yl)methoxy)malonic acid]"
2,3,"C#C[C@@]1(O)[C@@H](COC(Cc2ccccc2)(C(=O)O)C(=O)O)O[C@@H](n2cnc3c(NC4CCOC4)nc(Cl)nc32)[C@@H]1O (stereo partly drawn) [Example 64, 2-benzyl-2-(((2R,3S,4R,5R)-5-(2-chloro-6-((tetrahydrofuran-3-yl)-amino)-9H-purin-9-yl)-3-ethynyl-3,4-dihydroxytetrahydrofuran-2-yl)methoxy)-malonic acid]"
3,0.2,"C#C[C@@]1(O)[C@@H](COC(Cc2ccc(-c3ccccc3C(=O)O)cc2)(C(=O)O)C(=O)O)O[C@@H](n2cnc3c(N)nc(Cl)nc32)[C@@H]1O [Example 54, 2-(((2R,3S,4R,5R)-5-(6-amino-2-chloro-9H-purin-9-yl)-3-ethynyl-3,4-dihydroxytetrahydrofuran-2-yl)methoxy)-2-((2′-carboxy-[1,1′-biphenyl]-4-yl)methyl)malonic acid]"
4,0.5,"C#C[C@@]1(O)[C@@H](COC(Cc2ccccc2)(C(=O)O)C(=O)O)O[C@@H](n2cnc3c(N(C)C4CC(O)C4)nc(Cl)nc32)[C@@H]1O (stereo partly drawn) [Example 48, 2-benzyl-2-(((2R,3S,4R,5R)-5-(2-chloro-6-((3-hydroxycyclobutyl)-(methyl)amino)-9H-purin-9-yl)-3-ethynyl-3,4-dihydroxytetrahydrofuran-2-yl)methoxy)malonic acid]"
5,0.3,"C#C[C@@]1(O)[C@@H](COC(Cc2ccccc2)(C(=O)O)C(=O)O)O[C@@H](n2cnc3c(-c4cccs4)nc(Cl)nc32)[C@@H]1O [Example 18, 2-benzyl-2-(((2R,3S,4R,5R)-5-(2-chloro-6-(thiophen-2-yl)-9H-purin-9-yl)-3-ethynyl-3,4-dihydroxytetrahydrofuran-2-yl)methoxy)malonic acid]"
6,6,"C#C[C@@]1(O)[C@@H](COC(Cc2ccccc2)(C(=O)O)C(=O)O)O[C@@H](n2cnc3c(N(CCO)C4CC4)nc(Cl)nc32)[C@@H]1O [Example 99, 2-benzyl-2-(((2R,3S,4R,5R)-5-(2-chloro-6-(cyclopropyl(2-hydroxyethyl)amino)-9H-purin-9-yl)-3-ethynyl-3,4-dihydroxytetrahydrofuran-2-yl)methoxy)malonic acid]"
7,2,"C#C[C@@]1(O)[C@@H](COC(Cc2ccccc2)(C(=O)O)C(=O)O)O[C@@H](n2cnc3c(N4CC[C@@H](O)C4)nc(Cl)nc32)[C@@H]1O [Example 100, 2-benzyl-2-(((2R,3S,4R,5R)-5-(2-chloro-6-((R)-3-hydroxypyrrolidin-1-yl)-9H-purin-9-yl)-3-ethynyl-3,4-dihydroxytetrahydrofuran-2-yl)methoxy)malonic acid]"
8,170,"C#C[C@@]1(O)[C@@H](COC(Cc2ccccc2)(C(=O)O)C(=O)O)O[C@@H](n2cnc3c(N)nc(C(C)=O)nc32)[C@@H]1O [Example 127, 2-(((2R,3S,4R,5R)-5-(2-acetyl-6-amino-9H-purin-9-yl)-3-ethynyl-3,4-dihydroxytetrahydrofuran-2-yl)methoxy)-2-benzylmalonic acid]"
9,0.26,"C#C[C@@]1(O)[C@@H](COC(Cc2ccc(N3CCCCC3=O)cc2)(C(=O)O)C(=O)O)O[C@@H](n2cnc3c(N)nc(Cl)nc32)[C@@H]1O [Compound 10, 2-(((2R,3S,4R,5R)-5-(6-amino-2-chloro-9H-purin-9-yl)-3-ethynyl-3,4-dihydroxytetrahydrofuran-2-yl)methoxy)-2-(4-(2-oxopiperidin-1-yl)benzyl)malonic acid]"
10,2,"C#C[C@@]1(O)[C@@H](COC(Cc2ccccc2)(C(=O)O)C(=O)O)O[C@@H](n2cnc3c(N4CCCCCC4)nc(Cl)nc32)[C@@H]1O [Example 80, 2-(((2R,3S,4R,5R)-5-(6-(azepan-1-yl)-2-chloro-9H-purin-9-yl)-3-ethynyl-3,4-dihydroxytetrahydrofuran-2-yl)methoxy)-2-benzylmalonic acid]"
11,2,"C#C[C@@]1(O)[C@@H](COC(Cc2ccccc2)(C(=O)O)C(=O)O)O[C@@H](n2cnc3c(N4CC(C)(O)C4)nc(Cl)nc32)[C@@H]1O [Example 47, 2-benzyl-2-(((2R,3S,4R,5R)-5-(2-chloro-6-(3-hydroxy-3-methylazetidin-1-yl)-9H-purin-9-yl)-3-ethynyl-3,4-dihydroxytetrahydrofuran-2-yl)methoxy)malonic acid]"
12,1,"C#C[C@@]1(O)[C@@H](COC(Cc2ccccc2)(C(=O)O)C(=O)O)O[C@@H](n2cnc3c(NCCc4ccccc4)nc(Cl)nc32)[C@@H]1O [Example 70, 2-benzyl-2-(((2R,3S,4R,5R)-5-(2-chloro-6-(phenethylamino)-9H-purin-9-yl)-3-ethynyl-3,4-dihydroxytetrahydrofuran-2-yl)methoxy)malonic acid]"
